Reference: patent US20260344661A1, “USE OF AN ALKYLETHER SULFATE FOR IMPROVING THE EFFICACY OF HERBICIDES” (BASF SE, priority 2022, published 2026)

How the values were obtained:
[1] = system: AMATA (common water hemp); assay: Greenhouse post-emergence weed control, damage vs untreated (AMATA); format: in vivo, Amaranthus tuberculatus; details: 20 DAT
Method: A greenhouse study was conducted to evaluate the effect of the alkylether sulfates of formula (I) and other adjuvants on the weed control efficacy of glufosinate. Seedlings of grass plants (AVEFA, ECHCG, DIGSA and SETVI) and broadleaf weeds (KCHSC, CHEAL, AMAPA, AMATA and ABUTH) were grown to a height of 3 to 20 cm, depending on the plant habit in 10×10×10 cm pots filled with sandy planting soil (Limburgerhof soil). The weeds were treated with postemergence applications of glufosinate ammonium at the respective application rates given in the following tables, either alone or combined with various amounts of the respective adjuvants.
For this, the herbicide formulation and the respective adjuvant were introduced into tap water to obtain the spray liquor. […] The spray liquor was then applied to the plant a spray volume of 200 l/ha using a sprayer (XR Teejet 110015).
The test period extended over 21 days. During this time, the plants were tended, and their response to the treatments with active compound was evaluated.
The evaluation for the damage caused by the chemical compositions was carried out using a scale from 0 to 100%, compared to the untreated control plants. Here, 0 means no damage and 100 means complete destruction of the plants.
The plants used in the greenhouse experiments belonged to the following species:
The results are summarized in the following tables 1 to 15 that show the applied doses of the individual actives as gram of active ingredient per hectare (g ai/ha), the herbicidal activity of the individual actives and of their combinations in post-emergence application assessed 14 and 28 day after treatment (DAT), respectively.

TRZAS (spring wheat) = assay: Greenhouse post-emergence weed control, damage vs untreated (TRZAS); format: in vivo, Soft wheat (spring)

CP(=O)(O)CC[C@H](N)C(=O)O.N [CE1-B, ammonium (2S)-2-amino-4-(methylphosphinato)butyric acid]
% activity ([1]; 5 g ai/ha L-glufosinate (so in the source), no adjuvant): 95%
% activity ([1]; 37.5 g ai/ha L-glufosinate, adjuvant g ai/ha: none (CE1-B), 56 (IE2-A), 62.125 (IE2-B), 51.625 (CE2-F)): 20%
% activity ([1]; 150 g ai/ha L-glufosinate, adjuvant g ai/ha: none (CE1-B), 223 (IE2-A), 248.5 (IE2-B), 206.5 (CE2-F)): 98%
% activity ([1]; 300 g ai/ha L-glufosinate, adjuvant g ai/ha: none (CE1-B), 446 (IE2-A), 497 (IE2-B), 413 (CE2-F)): 98%
% activity TRZAS (TRZAS (spring wheat); g ai/ha: 42.375 solo (CE1-C), 42.375 + 66.97 combined (IE3-A/B/C, CE2-J)): 0%
% activity TRZAS (TRZAS (spring wheat); g ai/ha: 84.75 solo (CE1-C), 84.75 + 133.94 combined (IE3-A/B/C, CE2-J)): 0%
% activity TRZAS (TRZAS (spring wheat); g ai/ha: 169.5 solo (CE1-C), 169.5 + 267.89 combined (IE3-A/B/C, CE2-J)): 5%
% activity TRZAS (TRZAS (spring wheat); g ai/ha: 339 solo (CE1-C), 339 + 535.77 combined (IE3-A/B/C, CE2-J)): 5%
